Assay results reported in paper PMC6624388 (British Journal of Clinical Pharmacology, 2019).
Values after ≈ are worked out from the molar mass of the structure shown. Values joined by “and” are separate entries in the source; they are usually repeats but may differ in a detail not shown here. Identical values can stand only once. Like-named read-outs stand apart in the source and are kept apart here.

How the values were obtained:
[1] = format: in vivo, human
[2] = Part 2 mass balance; format: in vivo, human
[3] = format: in vivo, human; remark: listed apart in the source
[4] = Solubility in water and other physiological relevant media; format: physicochemical
[5] = Stability of navoximod in human plasma; format: in vitro ADME; conditions: five freeze–thaw cycles; at least 110 days at −10°C to −30°C and −60°C to −80°C; 24 h at room temperature
[6] = Safety assessments in Parts 1 and 2; format: in vivo, human; conditions: both parts, healthy volunteers
[7] = cited from earlier work
[8] = tested on: UGTs; conditions: ref unpublished results; cited from earlier work
[9] = tested on: tumour growth; conditions: in combination with anti‐PD‐L1, preclinical models; cited from earlier work
[10] = Part 2, oral 200 mg/600 μCi [14C]-navoximod

total IV clearance relative to blood flow ([1]; IV 5 mg): ~ 71 % of blood flow
CL/F (apparent oral clearance) ([1]; Part 1, healthy volunteers, oral 200 mg tablet, fasted, n = 16, geometric mean (geometric CV%)): 112 L/h and 112 (31.4) L/h
AUC(0-inf) ([1]; human, plasma, iv, 5 mg): 80.6 ng·h/mL
AUC(0-t) ([1]; human, plasma, iv, 5 mg): 79.1 ng·h/mL
Cmax ([1]; human, plasma, iv, 5 mg): 114 ng/mL
Tmax ([1]; human, plasma, iv, 5 mg): 5 min
Vd ([1]; human, plasma, iv, 5 mg): 1120 L
clearance ([1]; human, plasma, iv, 5 mg): 1030 mL/min
half-life ([1]; human, plasma, iv, 5 mg): 12.6 h
bioavailability ([1]; human, plasma, oral, 200 mg): 55.5%
AUC(0-inf) ([1]; human, plasma, po, 200 mg): 1790 ng·h/mL
AUC(0-t) ([1]; human, plasma, po, 200 mg): 1770 ng·h/mL
Cmax ([1]; human, plasma, po, 200 mg): 683 ng/mL
Vd/F ([1]; human, plasma, po, 200 mg): 1780 L
half-life ([1]; human, plasma, po, 200 mg): 11 h
recovery of total radioactivity in urine ([2]; % of administered dose, mean (± SD), oral 200 mg/600 μCi [14C]-navoximod): 80.4%
navoximod as share of plasma total radioactivity, geometric mean AUC0‐∞ ratio [2, 10]: 4.21%
navoximod as share of plasma total radioactivity, geometric mean C max ratio [2, 10]: 10.6%
geometric mean whole blood to plasma AUC0‐∞ ratio for total radioactivity ([2]; Part 2, total radioactivity (parent and metabolites)): 0.965
Fh ([2]; assuming Fg = 1): approximately 0.66
extrahepatic clearance ([2]; estimated): 31.2 L/h
total radioactivity recovered in excreta within the first 72 h ([2]; first 72 h, oral 200 mg/600 μCi [14C]-navoximod): 85.0%
Fh * Fg ([2]; from F and Fa): 0.66
AUC(0-inf) ([2]; human, plasma, po, 200 mg): 1540 ng·h/mL
AUC(0-t) ([2]; human, plasma, po, 200 mg): 1510 ng·h/mL
Cmax ([2]; human, plasma, po, 200 mg): 464 ng/mL
Vd/F ([2]; human, plasma, po, 200 mg): 1680 L
half-life ([2]; human, plasma, po, 200 mg): 9.41 h
CL renal ([2]; human, urine and plasma, oral, 200 mg): 20.3 mL/min
hepatic clearance (CLhep = [1 − Fh] * Qh) ([2]; in vivo): 29.6 L/h
fraction of metabolism (fm) ([2]; oral 200 mg): 0.98
hepatic first pass extraction ([2]; oral 200 mg): ~ 34%
fraction of the dose absorbed (Fa) ([2]; sum of radioactivity in urine and metabolites in faeces, as fraction): 0.841
AUC(0-t) ([3]; human, plasma, oral, 200 mg): 4.4 µM·h
Total (urine + feces) % of dose ([3]; mean of eight subjects, oral 200 mg/600 μCi [14C]-navoximod): 5.45 % of dose
Plasma % of TRA (share of total drug-derived exposure) ([3]; pooled 0–48 h plasma, n = 8, adjusted with extraction recovery, oral 200 mg/600 μCi [14C]-navoximod): 7.00%
Feces % of dose ([3]; pooled faeces, mean of eight subjects, oral 200 mg/600 μCi [14C]-navoximod): 3.79 % of dose
Urine % of dose ([3]; pooled urine, mean of eight subjects, oral 200 mg/600 μCi [14C]-navoximod): 1.66 % of dose
solubility [4]: 200 mg/mL (≈ 632 mM)
stability in human plasma [5]: stable
SMILES: O[C@H](C[C@H]1c2c(F)cccc2-c2cncn21)[C@H]1CC[C@H](O)CC1 [navoximod]
tolerability ([6]; all IV (5 mg) and oral (200 mg) doses): generally well tolerated
severity of adverse events ([6]; all IV and oral doses): mild
mean accumulation index ([7]; BID dosing): approximately 1.7
half‐life ([7]; clinical studies, monotherapy or with atezolizumab): approximately 12 hours
dose proportionality of exposure ([7]; dose range of 50–1000 mg): dose‐proportional increases in exposure
tolerability of single and twice daily oral doses ([7]; monotherapy, up to 1000 mg, cancer patients): well tolerated
major UGTs responsible for navoximod metabolism [8]: UGT1A9 and 2B7
effect on tumour growth [9]: inhibits tumour growth compared to either treatment alone
